Measured values: publication PMC9106929 (Circulation research, 2022)

Target: Piezo1 (Mus musculus, UniProt E2JF22)
Test: cell-attached single-channel patch clamp, open probability
Assay type: cell-based
Conditions: activator, 5 μM in pipette, -50 mV; effect absent in Piezo1-EC-KO cECs

Piezo1, sequence (E2JF22 whole entry): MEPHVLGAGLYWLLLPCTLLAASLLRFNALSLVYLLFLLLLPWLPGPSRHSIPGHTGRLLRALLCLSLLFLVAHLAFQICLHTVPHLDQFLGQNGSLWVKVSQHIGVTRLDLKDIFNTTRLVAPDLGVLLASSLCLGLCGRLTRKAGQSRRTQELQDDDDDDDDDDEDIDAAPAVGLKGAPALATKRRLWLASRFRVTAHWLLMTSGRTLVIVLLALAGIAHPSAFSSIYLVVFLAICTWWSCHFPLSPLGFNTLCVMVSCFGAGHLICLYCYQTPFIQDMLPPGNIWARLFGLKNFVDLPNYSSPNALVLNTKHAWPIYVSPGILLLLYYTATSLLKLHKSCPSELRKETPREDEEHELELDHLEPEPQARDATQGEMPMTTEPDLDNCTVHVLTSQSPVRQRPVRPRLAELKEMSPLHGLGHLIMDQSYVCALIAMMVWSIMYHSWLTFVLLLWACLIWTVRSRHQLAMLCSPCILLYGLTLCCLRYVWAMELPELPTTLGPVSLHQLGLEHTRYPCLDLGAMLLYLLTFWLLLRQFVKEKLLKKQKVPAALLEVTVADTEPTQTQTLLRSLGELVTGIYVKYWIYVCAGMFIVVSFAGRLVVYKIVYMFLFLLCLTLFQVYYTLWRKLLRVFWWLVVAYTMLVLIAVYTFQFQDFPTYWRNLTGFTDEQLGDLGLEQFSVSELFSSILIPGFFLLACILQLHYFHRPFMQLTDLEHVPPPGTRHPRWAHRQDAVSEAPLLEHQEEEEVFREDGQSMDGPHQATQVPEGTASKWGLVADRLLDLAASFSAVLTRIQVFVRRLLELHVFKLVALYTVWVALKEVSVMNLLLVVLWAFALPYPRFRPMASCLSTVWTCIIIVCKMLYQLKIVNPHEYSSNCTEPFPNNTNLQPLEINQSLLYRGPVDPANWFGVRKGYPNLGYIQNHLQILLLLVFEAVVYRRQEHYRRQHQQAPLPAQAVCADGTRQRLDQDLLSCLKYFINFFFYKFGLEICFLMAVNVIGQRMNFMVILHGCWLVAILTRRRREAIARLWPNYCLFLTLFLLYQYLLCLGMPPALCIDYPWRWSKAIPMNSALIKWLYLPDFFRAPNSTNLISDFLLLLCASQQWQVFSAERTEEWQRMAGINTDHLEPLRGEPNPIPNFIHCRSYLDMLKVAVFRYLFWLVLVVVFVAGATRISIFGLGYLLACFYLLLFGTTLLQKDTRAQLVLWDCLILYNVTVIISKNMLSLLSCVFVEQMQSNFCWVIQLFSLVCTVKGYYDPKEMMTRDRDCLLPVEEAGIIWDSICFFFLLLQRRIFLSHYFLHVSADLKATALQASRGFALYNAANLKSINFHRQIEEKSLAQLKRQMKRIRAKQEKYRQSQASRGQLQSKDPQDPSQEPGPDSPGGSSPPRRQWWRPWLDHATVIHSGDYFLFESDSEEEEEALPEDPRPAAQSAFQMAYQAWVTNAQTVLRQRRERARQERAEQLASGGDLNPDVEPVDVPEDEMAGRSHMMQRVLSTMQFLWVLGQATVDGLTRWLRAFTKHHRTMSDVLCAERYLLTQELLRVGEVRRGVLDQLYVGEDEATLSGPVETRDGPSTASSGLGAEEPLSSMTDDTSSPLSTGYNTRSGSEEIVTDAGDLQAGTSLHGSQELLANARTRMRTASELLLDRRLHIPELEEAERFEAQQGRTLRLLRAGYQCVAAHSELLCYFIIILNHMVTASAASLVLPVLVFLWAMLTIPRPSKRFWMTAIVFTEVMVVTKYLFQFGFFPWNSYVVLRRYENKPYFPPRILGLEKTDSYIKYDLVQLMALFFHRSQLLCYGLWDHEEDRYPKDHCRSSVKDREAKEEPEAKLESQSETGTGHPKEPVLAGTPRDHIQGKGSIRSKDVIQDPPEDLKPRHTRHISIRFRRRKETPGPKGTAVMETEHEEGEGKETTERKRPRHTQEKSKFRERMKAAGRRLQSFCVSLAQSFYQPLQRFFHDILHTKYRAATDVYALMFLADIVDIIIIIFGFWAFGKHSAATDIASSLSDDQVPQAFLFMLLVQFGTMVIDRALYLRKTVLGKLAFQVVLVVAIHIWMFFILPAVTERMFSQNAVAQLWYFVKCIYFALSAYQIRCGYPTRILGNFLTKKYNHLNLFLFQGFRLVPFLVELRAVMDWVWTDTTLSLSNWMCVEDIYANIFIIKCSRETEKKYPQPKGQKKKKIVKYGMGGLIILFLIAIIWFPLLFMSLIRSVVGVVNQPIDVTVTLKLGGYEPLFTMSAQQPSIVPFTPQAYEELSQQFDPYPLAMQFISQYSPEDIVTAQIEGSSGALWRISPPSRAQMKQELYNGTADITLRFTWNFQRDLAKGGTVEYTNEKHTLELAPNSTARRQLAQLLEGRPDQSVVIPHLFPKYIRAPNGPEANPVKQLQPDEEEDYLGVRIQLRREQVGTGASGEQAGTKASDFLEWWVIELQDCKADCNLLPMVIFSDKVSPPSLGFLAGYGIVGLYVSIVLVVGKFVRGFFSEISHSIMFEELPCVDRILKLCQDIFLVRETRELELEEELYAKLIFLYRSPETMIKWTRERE

Clc1cccc(Cl)c1CSc1nnc(-c2cnccn2)s1 [Yoda1]
cell-attached single-channel patch clamp, open probability: increased the open probability of Piezo1-like currents in Piezo1-EC-Ctrl cECs but not in Piezo1-EC-KO
